In patent publication US10222368B2 (priority 2012, dated 2019):

Experiments:
TLR4-FLNA complex = molecular target: T1, TLR4-FLNA complex (Homo sapiens, UniProt P21333); experiment: 96-well FITC-solid phase method in lymphocytes; format: cell-based; conditions: 1 nM C0105, 30 min; AD lymphocytes or Aβ42-treated control lymphocytes
T1 construct: To determine the levels of FLNA-α7nAChR, FLNA-TLR4 and α7nAChR-Aβ42 complexes in the lymphocytes; endogenous in cells; host or cells: lymphocytes from venous blood of AD patients and control subjects (ex vivo)
T1 sequence (P21333 2-2647 limits assumed, one chain of several): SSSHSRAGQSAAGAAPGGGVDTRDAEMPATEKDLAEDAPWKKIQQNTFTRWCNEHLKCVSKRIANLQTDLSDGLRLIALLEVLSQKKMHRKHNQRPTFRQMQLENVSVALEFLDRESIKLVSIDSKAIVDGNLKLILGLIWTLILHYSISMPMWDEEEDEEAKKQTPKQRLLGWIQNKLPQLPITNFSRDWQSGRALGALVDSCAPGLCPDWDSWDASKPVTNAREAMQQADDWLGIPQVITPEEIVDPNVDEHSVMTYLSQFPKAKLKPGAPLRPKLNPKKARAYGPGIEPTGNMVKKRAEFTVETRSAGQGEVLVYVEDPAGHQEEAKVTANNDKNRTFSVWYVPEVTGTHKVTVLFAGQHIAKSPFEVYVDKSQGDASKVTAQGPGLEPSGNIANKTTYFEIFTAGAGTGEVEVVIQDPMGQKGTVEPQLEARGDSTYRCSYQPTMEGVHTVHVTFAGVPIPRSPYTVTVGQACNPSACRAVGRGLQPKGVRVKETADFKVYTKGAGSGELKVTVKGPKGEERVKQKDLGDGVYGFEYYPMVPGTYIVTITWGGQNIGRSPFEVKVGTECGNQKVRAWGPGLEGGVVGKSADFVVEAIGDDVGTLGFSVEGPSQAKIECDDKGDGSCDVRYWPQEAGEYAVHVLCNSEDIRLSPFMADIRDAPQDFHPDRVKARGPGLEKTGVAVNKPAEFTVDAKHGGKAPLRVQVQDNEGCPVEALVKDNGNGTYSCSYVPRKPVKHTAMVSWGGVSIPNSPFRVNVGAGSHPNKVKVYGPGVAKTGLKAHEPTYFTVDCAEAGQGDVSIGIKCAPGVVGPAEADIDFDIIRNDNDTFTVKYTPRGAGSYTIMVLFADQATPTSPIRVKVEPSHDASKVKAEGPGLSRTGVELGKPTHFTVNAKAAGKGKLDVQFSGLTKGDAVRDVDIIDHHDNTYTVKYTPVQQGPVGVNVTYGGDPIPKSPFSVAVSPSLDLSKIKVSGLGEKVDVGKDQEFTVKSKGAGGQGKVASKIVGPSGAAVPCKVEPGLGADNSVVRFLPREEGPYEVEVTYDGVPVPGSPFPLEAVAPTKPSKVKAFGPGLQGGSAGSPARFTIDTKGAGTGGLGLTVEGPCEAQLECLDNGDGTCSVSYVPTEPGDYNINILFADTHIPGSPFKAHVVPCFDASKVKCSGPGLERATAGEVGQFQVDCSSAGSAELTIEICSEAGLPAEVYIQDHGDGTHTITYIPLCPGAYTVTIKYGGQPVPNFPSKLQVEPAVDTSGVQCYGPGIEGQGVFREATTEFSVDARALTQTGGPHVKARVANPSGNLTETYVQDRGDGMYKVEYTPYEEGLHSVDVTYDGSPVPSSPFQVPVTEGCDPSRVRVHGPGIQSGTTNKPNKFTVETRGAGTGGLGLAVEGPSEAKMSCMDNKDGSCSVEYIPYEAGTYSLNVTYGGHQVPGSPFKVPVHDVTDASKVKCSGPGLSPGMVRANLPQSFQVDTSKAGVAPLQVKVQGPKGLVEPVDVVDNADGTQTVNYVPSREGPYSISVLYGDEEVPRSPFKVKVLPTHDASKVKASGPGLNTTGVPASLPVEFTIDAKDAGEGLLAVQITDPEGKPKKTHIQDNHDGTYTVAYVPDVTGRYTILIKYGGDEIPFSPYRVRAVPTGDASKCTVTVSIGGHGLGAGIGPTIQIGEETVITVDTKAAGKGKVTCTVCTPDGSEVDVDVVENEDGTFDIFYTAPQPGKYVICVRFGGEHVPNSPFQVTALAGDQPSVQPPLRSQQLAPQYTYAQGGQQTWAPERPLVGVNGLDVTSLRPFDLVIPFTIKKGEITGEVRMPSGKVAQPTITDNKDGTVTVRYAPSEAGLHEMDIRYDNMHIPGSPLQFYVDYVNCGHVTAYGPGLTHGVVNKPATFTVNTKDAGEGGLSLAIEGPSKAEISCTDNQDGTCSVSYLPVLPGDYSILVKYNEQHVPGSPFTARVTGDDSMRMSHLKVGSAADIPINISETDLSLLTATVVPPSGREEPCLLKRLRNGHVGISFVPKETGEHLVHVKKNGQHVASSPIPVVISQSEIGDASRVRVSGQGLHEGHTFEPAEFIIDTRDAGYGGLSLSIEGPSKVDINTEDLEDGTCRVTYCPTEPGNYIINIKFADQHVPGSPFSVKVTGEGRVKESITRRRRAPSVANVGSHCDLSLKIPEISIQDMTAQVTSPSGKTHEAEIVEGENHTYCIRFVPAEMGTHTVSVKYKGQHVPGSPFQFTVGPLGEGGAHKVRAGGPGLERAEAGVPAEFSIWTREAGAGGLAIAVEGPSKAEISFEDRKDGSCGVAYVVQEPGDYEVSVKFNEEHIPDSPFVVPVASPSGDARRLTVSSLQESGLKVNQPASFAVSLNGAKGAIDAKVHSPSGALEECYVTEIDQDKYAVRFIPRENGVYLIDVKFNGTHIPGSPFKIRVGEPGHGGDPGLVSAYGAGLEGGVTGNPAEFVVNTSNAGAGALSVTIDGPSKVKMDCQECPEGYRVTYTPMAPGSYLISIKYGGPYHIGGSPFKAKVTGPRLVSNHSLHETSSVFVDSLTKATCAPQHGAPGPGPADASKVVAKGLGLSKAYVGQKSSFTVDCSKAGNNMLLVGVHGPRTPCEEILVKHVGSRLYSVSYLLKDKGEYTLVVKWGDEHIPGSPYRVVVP
Source text: (§1) FIG. 2 illustrates the utility of a 96-well FITC-solid phase assay method to assess, in lymphocytes from AD patients and control subjects, levels of 1) the FLNA-α7nAChR association 2) the FLNA-TLR4 association and 3) α7nAChR-Aβ42 complexes. The top two panels show α7nAChR and TLR4 levels detected using respective FITC-anti-α7nAChR or FITC-anti-TLR4 antibodies after capturing FLNA coupled to α7nAChR and TLR4, respectively, with an anti-FLNA antibody coated on the microtiter solid phase plate.
(§2) To prepare lymphocytes, 7 ml of venous blood was collected into an EDTA-containing collecting tube or S-monovette (Sarstedt). Collected blood (6 ml) was layered onto 6 ml of Histopaque®-1077 (Sigma) at 25° C., and the anticoagulated blood was centrifuged at 400×g for 30 minutes (25° C.) to yield plasma (top layer) and lymphocytes (opaque interface). The lymphocytes were washed twice by mixing with 6 ml of oxygenated K-R followed by centrifugation at 250×g for 10 minutes and resuspension. […]
(§3) After two 1-minute washes with 50 mM Tris HCl (pH 7.4), each well was incubated in 0.5 μg/well FITC-conjugated anti-mouse IgG (human and mouse absorbed) for 1 hour at 25° C. Plates were washed twice with 200 μl ice-cold Tris HCl, pH 7.4 and the residual FITC-Aβ42 signals were determined by multimode plate reader, DTX880 (Beckman).

α7nAChR-FLNA complex = molecular target: T2, α7nAChR-FLNA complex (Homo sapiens, UniProt P21333); experiment: 96-well FITC-solid phase method in lymphocytes; format: cell-based; conditions: 1 nM C0105, 30 min; AD lymphocytes or Aβ42-treated control lymphocytes
T2 construct: To determine the levels of FLNA-α7nAChR, FLNA-TLR4 and α7nAChR-Aβ42 complexes in the lymphocytes; endogenous in cells; host or cells: lymphocytes from venous blood of AD patients and control subjects (ex vivo)
T2 sequence (P21333 2-2647 limits assumed, one chain of several): as above
Source text: as §1, §2, §3

α7nAChR-Aβ42 complex = experiment: 96-well FITC-solid phase method in lymphocytes; format: cell-based, human; conditions: 1 nM C0105, 30 min; AD lymphocytes or Aβ42-treated control lymphocytes
Source text: as §1, §2
After two 1-minute washes with 50 mM Tris HCl (pH 7.4), each well was incubated in 0.5 μg/well FITC-conjugated anti-mouse IgG (human and mouse absorbed) for 1 hour at 25° C. Plates were washed twice with 200 μl ice-cold Tris HCl, pH 7.4 and the residual FITC-Aβ42 signals were determined by multimode plate reader, DTX880 (Beckman). […]

[1] = molecular target: FLNA association with TLR4 (Homo sapiens, UniProt P21333); experiment: Postmortem human brain tissue slices, anti-FLNA immunoprecipitation / Western blot; format: cell-based; conditions: 0.1 and 1 nM C0105, 1 hour; postmortem AD and Aβ42-treated control FCX tissue
Sequence of FLNA association with TLR4 (P21333 2-2647 limits assumed): as the sequence (P21333 2-2647 limits assumed, one chain of several) above
Procedure: (§4) Blots were analyzed by densitometric quantitation (FIG. 3B and FIG. 3D). […] Percent inhibition is depicted in FIG. 3C and FIG. 3E. n=11.
(§5) Postmortem brain tissues FCX from patients with clinically diagnosed sporadic AD and control tissues from normal, age-matched, neurologically normal individuals were obtained from the Harvard Brain Tissue Resource Center (HBTRC, Belmont, Mass.) and UCLA Brain Tissue Resource Center (UBTRC, Los Angeles, Calif.). Both HBTRC and UBTRC are supported in part by the National Institute of Health. The postmortem time intervals for collecting these brains were ≤13 hour (mean postmortem intervals for collection of AD and control brain samples were 6.0±0.9 hour and 5.8±0.8 hour, respectively). Diagnostic neuropathological examination was conducted on fixed sections stained with hematoxylin and eosin stain and with modified Bielschowsky silver staining [Yamamoto et al., Neuropathol Appl Neurobiol 12, 3-9 (1986)] to establish any disease diagnosis according to defined criteria [Hyman et al., J Neuropathol Exp Neurol 56, 1095-1097 (1997)] and brain tissue from age-matched controls was similarly screened.
(§6) Following centrifugation and two additional washes with 1 ml ice-cold K-R, brain slices were suspended in 1 ml K-R.
(§7) Incubation continued for 1 hour in the dark. […]

[2] = molecular target: FLNA association with α7nAChR (Homo sapiens, UniProt P21333); experiment: as above; format: cell-based; conditions: 0.1 and 1 nM C0105, 1 hour; postmortem AD and Aβ42-treated control FCX tissue
Sequence of FLNA association with α7nAChR (P21333 2-2647 limits assumed): as the sequence (P21333 2-2647 limits assumed, one chain of several) above
Procedure: as §4, §5, §6, §7

α7nAChR/FLNA complexes = molecular target: T3, α7nAChR/FLNA complexes (Homo sapiens, UniProt P21333); experiment: Protein A and Protein G capture plate assay in lymphocytes; format: cell-based; conditions: 1 nM
T3 construct: To determine the levels of FLNA-α7nAChR, FLNA-TLR4 and α7nAChR-Aβ42 complexes in the lymphocytes; endogenous in cells; host or cells: lymphocytes from venous blood of AD patients and control subjects (ex vivo)
T3 sequence (P21333 2-2647 limits assumed, one chain of several): as above
Procedure: Each sample was assessed in duplicate.

TLR4/FLNA = molecular target: T4, TLR4/FLNA (Rattus norvegicus, UniProt A0A8I5ZV49); experiment: Rat frontal cortical synaptosomes treated with Aβ42, anti-FLNA immunoprecipitation / Western blot; format: cell-based; conditions: 1 or 10 nM compound, simultaneously or 10 min prior to 0.1 μM Aβ42; Dunnett's test
T4 construct: from tissue; host or cells: rat frontal cortical synaptosomes
Procedure: The complexes in the solubilized synaptosomes, and α7nAChR, TLR4 and FLNA levels in the anti-FLNA immunoprecipitates were determined by Western blotting (FIG. 15A) in which numerals outside of and to the left of the blots are as discussed before. Amounts present in the blots were quantified by densitometry (FIG. 15B). […] Structural formulas of the compounds used in this and the other figures are provided hereinafter.

TLR4/FLNA complexes = TLR4/FLNA complexes (Homo sapiens, UniProt P21333); experiment: Protein A and Protein G capture plate assay in lymphocytes; conditions: 1 nM
Sequence of TLR4/FLNA complexes (P21333 2-2647 limits assumed, one chain of several): as above

CN1CCC2(CC1)NCC(=O)N2Cc1ccccc1 [Compound C0105]
Effect on FLNA-TLR4 association (in words) (TLR4-FLNA complex): reduce all three associations | Effect on FLNA-α7nAChR association (in words) (α7nAChR-FLNA complex): reduce all three associations | Effect on α7nAChR-Aβ42 complexes (in words) (α7nAChR-Aβ42 complex): reduce all three associations | Effect on FLNA association with TLR4 (in words) [1]: reduced these associations | Effect on FLNA association with α7nAChR (in words) [2]: reduced these associations | Decrease in amount of α7nAChR FLNA complexes (α7nAChR/FLNA complexes; AD lymphocytes): approximately 50% | Response of α7nAChR/FLNA complexes (in words) (α7nAChR/FLNA complexes; YCI lymphocytes): essentially non-responsive | TLR4/FLNA ratio versus Aβ42 alone (in words) (TLR4/FLNA): statistically different from Aβ42 alone | Decrease in amount of TLR4 FLNA complexes (TLR4/FLNA complexes; AD lymphocytes): approximately 50% | Response of TLR4/FLNA complexes (in words) (TLR4/FLNA complexes; YCI lymphocytes): essentially non-responsive
